The target of data set [1] is T1, CYP3A4 (Homo sapiens, UniProt P08684). The data set is described as follows: Thermal denaturation (melting temperature of ligand-bound CYP3A4). The format is binding. Set-up: Codon-optimized full-length and Δ3–22 human CYP3A4 were produced as reported previously [45] and used for assays and crystallization, respectively; made in house. Particulars: 1 μM protein, 20 μM ligand; for ΔTm at 15 min, 20 μM: human, purified CYP3A4 protein, pH 7.4, ligand-dependent change in melting temperature; for ΔTm: ligand-dependent change in melting temperature. As for the experimental part:
Thermal Denaturation—Thermal denaturation curves were recorded in 0.1 M phosphate buffer, pH 7.4, in a Cary 300 spectrophotometer. Protein (1 μM) was mixed with a ligand (20 μM) and incubated for 15 min at 23 °C. Melting curves were recorded at 260 nm using a 0.2 °C measurement step, 0.9 °C/min ramp rate, and a 50–75 °C temperature range. A denaturation midpoint (melting temperature; Tm) was determined from non-linear fittings to the melting curve as described earlier.

Data set [2] concerns the target T1, CYP3A4. Nature of the data set: H2O2-dependent heme depletion assay. Set-up: Codon-optimized full-length and Δ3–22 human CYP3A4 were produced as reported previously [45] and used for assays and crystallization, respectively; made in house. The settings on record: for % decay (heme destroyed at the end of the reaction): 1.6 μM CYP3A4, 16 μM inhibitor, 10 mM H2O2, 120 min, relative to ligand-free CYP3A4 (100% decay); for heme preserved: 10 mM H2O2, end of the reaction; for higher heme loss: weaker ligands compared with the strongest binders/inhibitors.

For data set [3], the target named is T1, CYP3A4. The data set is described as follows: Stopped-flow kinetics of ligand binding. The settings on record: for k fast: rate constant for the fast phase of the ligand binding reaction; for percentage of the fast phase: value in brackets of k fast column. Further details: Codon-optimized full-length and Δ3–22 human CYP3A4 were produced as reported previously [45] and used for assays and crystallization, respectively; made in house. As for the experimental part: (§1) Kinetics of Ligand Binding and Heme Reduction—Kinetics of ligand binding to CYP3A4 and its reduction with sodium dithionite were measured at 426 and 443 nm, respectively, in a SX.18MV stopped flow apparatus (Applied Photophysics, UK), as described earlier.

The target of data set [4] is T1, CYP3A4. Nature of the data set: Inhibitory potency for BFC O-debenzylation activity in a soluble reconstituted system. Further details: The full-length CYP3A4 and rat cytochrome P450 reductase (40 and 60 μM, respectively) were preincubated; made in house. The format is biochemical. The settings on record: BFC debenzylase activity, 0.1 μM CYP3A4 with cytochrome P450 reductase, no NADPH preincubation.

The target in data set [5] is T1, CYP3A4. Nature of the data set: Spectral binding titrations (equilibrium ligand binding, type II spectral change). Set-up: Codon-optimized full-length and Δ3–22 human CYP3A4 were produced as reported previously [45] and used for assays and crystallization, respectively; made in house. The settings on record: for Kd: WT CYP3A4, 2 μM protein, pH 7.4, quadratic fits to titration plots, read-out: Ks (spectral dissociation constant); for λmax (nm) Ferric: ferric inhibitor-bound CYP3A4, Soret band; for λmax (nm) ferrous: ferrous inhibitor-bound CYP3A4, Soret band; for ΔAmax: maximal absorbance change (peak/trough in difference spectrum) relative to that induced by ritonavir; for A421/417: ratio between the absorbance maxima of ferric ligand-bound and ligand-free CYP3A4.

In data set [6] the target is T1, CYP3A4. The data set is described as follows: Kinetics of heme reduction of inhibitor-bound CYP3A4 with sodium dithionite. Set-up: Codon-optimized full-length and Δ3–22 human CYP3A4 were produced as reported previously [45] and used for assays and crystallization, respectively; made in house. Particulars: for portion of the protein reduced: k ET, heme reduction by sodium dithionite; for k ET: rate constant for reduction of inhibitor-bound CYP3A4 with sodium dithionite.
From the text: Ritonavir-like molecules inhibit CYP3A4 not only via heme ligation and decrease in the heme redox potential but also by blocking the active site and preventing substrates from accessing the catalytic centre. We usually evaluate the heme accessibility by measuring the rate and percentage of anaerobic heme reduction by sodium dithionite, an artificial electron donor (k^ET in Table 1). […] Therefore, we utilized another method, heme bleaching with hydrogen peroxide, to probe the accessibility of the cofactor. H2O2 is a small oxidizing agent that easily penetrates the protein interior and destroys the heme without altering the P450 structure. Due to the complex, multiphasic nature of heme decay kinetics, it was more convenient to compare the percentage of heme destroyed at the end of the reaction.
as §1

The target of the next data set is T2, K421A/K424A CYP3A4 (Homo sapiens, UniProt P08684, K421A/K424A).
T2 construct: made in house
T2 sequence (P08684 with tags, fused parts or gaps K421A/K424A): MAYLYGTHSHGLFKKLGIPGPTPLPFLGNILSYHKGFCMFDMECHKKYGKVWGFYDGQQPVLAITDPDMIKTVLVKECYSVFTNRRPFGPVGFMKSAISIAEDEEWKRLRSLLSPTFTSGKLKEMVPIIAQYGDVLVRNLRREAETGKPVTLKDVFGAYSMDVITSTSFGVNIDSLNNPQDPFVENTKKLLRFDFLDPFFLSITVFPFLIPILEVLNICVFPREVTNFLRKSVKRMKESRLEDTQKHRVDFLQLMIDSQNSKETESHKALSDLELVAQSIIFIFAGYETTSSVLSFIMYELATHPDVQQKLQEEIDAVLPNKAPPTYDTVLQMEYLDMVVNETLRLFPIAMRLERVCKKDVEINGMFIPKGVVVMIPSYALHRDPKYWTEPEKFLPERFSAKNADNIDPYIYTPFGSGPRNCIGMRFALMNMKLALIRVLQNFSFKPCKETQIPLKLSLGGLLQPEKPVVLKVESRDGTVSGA
The data set is described as follows: Spectral binding titrations with the K421A/K424A mutant. The settings on record: read-out: Ks (dissociation constant).

Molecules are shown by their SMILES. Some results are limits rather than exact numbers.

T1 sequence (P08684 whole entry): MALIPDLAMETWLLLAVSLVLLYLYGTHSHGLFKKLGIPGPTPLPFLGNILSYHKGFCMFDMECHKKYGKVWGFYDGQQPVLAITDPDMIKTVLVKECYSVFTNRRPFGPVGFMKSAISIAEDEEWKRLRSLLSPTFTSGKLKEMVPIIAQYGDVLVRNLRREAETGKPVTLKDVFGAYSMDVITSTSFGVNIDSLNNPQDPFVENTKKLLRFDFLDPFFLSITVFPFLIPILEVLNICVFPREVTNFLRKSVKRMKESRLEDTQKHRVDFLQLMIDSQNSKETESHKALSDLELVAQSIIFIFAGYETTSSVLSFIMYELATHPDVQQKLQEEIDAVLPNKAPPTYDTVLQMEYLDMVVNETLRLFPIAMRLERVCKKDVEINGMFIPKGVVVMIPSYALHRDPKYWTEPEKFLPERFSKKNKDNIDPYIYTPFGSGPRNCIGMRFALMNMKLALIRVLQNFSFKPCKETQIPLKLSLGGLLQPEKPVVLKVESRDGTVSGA

With `CC(C)(C)OC(=O)NC(CSC(Cc1ccccc1)C(=O)NCCCc1cccnc1)Cc1ccccc1` (centres unmarked) [Compound 3a], the ΔTm at 15 min, 20 μM at CYP3A4 [1] is 8.1 °C. Moreover, on CYP3A4 [2], the “% decay (heme destroyed at the end of the reaction)” value (“% decay” below) is 18% and the heme preserved was more than 80%. Further, on CYP3A4 [3], the k fast amounted to 12.5 s⁻¹ and the “percentage of the fast phase” value was found to be 36%. The compound also gave an IC50 against CYP3A4 [4] of 160 ± 20 nM.

As to `CC(C)(C)OC(=O)NC(CSC(Cc1ccccc1)C(=O)NCCCc1cccnc1)Cc1ccccc1` (centres unmarked) [Compound 3b], at CYP3A4 [1], the ΔTm was 5.3 °C. On CYP3A4 [2], the “% decay” value is recorded as 26% and the higher heme loss is 4–16%. In addition, on CYP3A4 [5], the Kd is 29 ± 4 nM, the “λmax (nm) Ferric” value is recorded as 421 nm, the “λmax (nm) ferrous” value is on record as 443 nm and the ΔAmax was found to be 111%. Also, on CYP3A4 [5], the A421/417 is 1.08. The compound also showed an IC50 against CYP3A4 [4] of 300 ± 20 nM. Moreover, at CYP3A4 [6], the “portion of the protein reduced” value stood at 87% and the “k ET” value worked out at 0.014 s⁻¹.

Turning to `CC(C)(C)OC(=O)N[C@H](CS[C@@H](Cc1ccccc1)C(=O)NCCCc1cccnc1)Cc1ccccc1` [Compound 3c], the ΔTm at 15 min, 20 μM at CYP3A4 [1] turned out to be 5.8 °C. The compound further returned an IC50 at CYP3A4 [4] of 310 ± 40 nM. For the same compound, at CYP3A4 [6], the “portion of the protein reduced” value amounted to 77% and the “k ET” value amounted to 0.012 s⁻¹.

Regarding `CC(C)(C)OC(=O)N[C@@H](CS[C@H](Cc1ccccc1)C(=O)NCCCc1cccnc1)Cc1ccccc1` [Compound 3d], the ΔTm at 15 min, 20 μM on CYP3A4 [1] turned out to be 5.6 °C. Also, the “% decay” value on CYP3A4 [2] was 22%. For the same compound, at CYP3A4 [3], the k fast worked out at 12.0 s⁻¹ and the “percentage of the fast phase” value is 38%. The Kd at K421A/K424A CYP3A4 worked out at 19 nM. Also, the IC50 on CYP3A4 [4] was 210 ± 20 nM. Further, on CYP3A4 [6], the “portion of the protein reduced” value is 95% and the “k ET” value came to 0.013 s⁻¹.

`CC(C)(C)OC(=O)N[C@H](CS[C@H](Cc1ccccc1)C(=O)NCCCc1cccnc1)Cc1c[nH]c2ccccc12` [Compound 3e]: the ΔTm at 15 min, 20 μM at CYP3A4 [1] worked out at 7.8 °C. For the same compound, at CYP3A4 [2], the “% decay” value was 18% and the heme preserved is more than 80%. For the same compound, at CYP3A4 [3], the k fast was 20.1 s⁻¹ and the “percentage of the fast phase” value was found to be 24%. Moreover, at CYP3A4 [5], the Kd came out at 19 ± 2 nM, the “λmax (nm) Ferric” value was 422 nm, the “λmax (nm) ferrous” value was 444 nm and the ΔAmax is recorded as 125%. Besides, at CYP3A4 [5], the A421/417 was 1.11. Also, the “fold decrease in Ks” value at CYP3A4 [5] (relative to shorter pyridyl-ethyl counterpart 7b (series IV)) is listed as 4 fold. In addition, 150 ± 30 nM corresponded to half-maximal inhibition at CYP3A4 [4] (IC50). Moreover, on CYP3A4 [6], the “portion of the protein reduced” value is given as 85% and the “k ET” value stood at 0.020 s⁻¹.

In the case of `CC(C)(C)OC(=O)NC(CSC(Cc1ccccc1)C(=O)NCCCc1cccnc1)Cc1cccc2ccccc12` (centres unmarked) [Compound 3f], the shift in melting temperature (ΔTm) at 15 min, 20 μM on CYP3A4 [1] is 7.9 °C. For the same compound, on CYP3A4 [2], the “% decay” value is on record as 15% and the heme preserved is recorded as more than 80%. On CYP3A4 [4], this compound came in with an IC50 of 160 ± 30 nM. Moreover, at CYP3A4 [6], the “portion of the protein reduced” value worked out at 94% and the “k ET” value amounted to 0.011 s⁻¹.

In the case of `CC(C)(C)OC(=O)NC(CSC(Cc1ccccc1)C(=O)NCCCc1cccnc1)Cc1cccc2ccccc12` (centres unmarked) [Compound 3g], the ΔTm at CYP3A4 [1] was determined as 4.9 °C. Also, at CYP3A4 [2], the “% decay” value stood at 22% and the higher heme loss is on record as 4–16%. In addition, on CYP3A4 [3], the k fast is 10.8 s⁻¹ and the “percentage of the fast phase” value turned out to be 32%. Further, at CYP3A4 [5], the Kd was found to be 24 ± 6 nM, the “λmax (nm) Ferric” value was found to be 422 nm, the “λmax (nm) ferrous” value is 444 nm and the ΔAmax was determined as 111%. The A421/417 at CYP3A4 [5] was determined as 1.09. Further, the IC50 on CYP3A4 [4] turned out to be 300 ± 60 nM. Moreover, on CYP3A4 [6], the “portion of the protein reduced” value came out at 75% and the “k ET” value amounted to 0.011 s⁻¹.

`CC(C)(C)OC(=O)N[C@H](CS[C@@H](Cc1ccccc1)C(=O)NCCCc1cccnc1)Cc1cccc2ccccc12` [Compound 3h]: on CYP3A4 [2], the “% decay” value was 12% and the heme preserved is more than 80%. In addition, on CYP3A4 [3], the k fast amounted to 16.1 s⁻¹ and the “percentage of the fast phase” value is listed as 24%. Also, at CYP3A4 [5], the Kd amounted to 7 ± 1 nM, the “λmax (nm) Ferric” value was 422 nm, the “λmax (nm) ferrous” value is 444 nm and the ΔAmax is given as 112%. In addition, on CYP3A4 [5], the A421/417 is recorded as 1.09. Also, on CYP3A4 [4], it took 90 ± 10 nM to reach half-maximal inhibition (IC50). On CYP3A4 [6], the “portion of the protein reduced” value is on record as 72% and the “k ET” value came out at 0.017 s⁻¹.

On to `CC(C)(C)OC(=O)N[C@@H](CS[C@H](Cc1ccccc1)C(=O)NCCCc1cccnc1)Cc1cccc2ccccc12` [Compound 3i], for which the ΔTm at 15 min, 20 μM at CYP3A4 [1] was determined as 5.5 °C. Moreover, on CYP3A4 [2], the “% decay” value is recorded as 23%. At CYP3A4 [3], the k fast came to 12.3 s⁻¹ and the “percentage of the fast phase” value came out at 24%. On K421A/K424A CYP3A4, the Kd is 25 nM. On CYP3A4 [5], the Kd was 18 ± 3 nM, the “λmax (nm) Ferric” value is recorded as 422 nm, the “λmax (nm) ferrous” value was found to be 444 nm and the ΔAmax was found to be 114%. Besides, on CYP3A4 [5], the A421/417 stood at 1.10. The compound further registered an IC50 at CYP3A4 [4] of 150 ± 20 nM. Besides, at CYP3A4 [6], the “portion of the protein reduced” value was 97% and the “k ET” value is 0.021 s⁻¹.

Consider `CC(C)(C)OC(=O)NC(CSCC(Nc1ccccc1)C(=O)NCc1cccnc1)Cc1cccc2ccccc12` (centres unmarked) [Compound 5b, reference compound], for which the “% decay” value on CYP3A4 [2] amounted to 25%.

Consider `CC(C)(C)OC(=O)NC(CSC(Cc1ccccc1)C(=O)NCCOCc1cccnc1)Cc1ccccc1` (centres unmarked) [Compound 6], for which, at CYP3A4 [1], the ΔTm at 15 min, 20 μM was less than 3 °C. Besides, on CYP3A4 [2], the “% decay” value stood at 34% and the higher heme loss is 4–16%. On CYP3A4 [3], the k fast was determined as 9.5 s⁻¹ and the “percentage of the fast phase” value stood at 29%. Besides, at CYP3A4 [5], the Kd is 213 ± 9 nM, the “λmax (nm) Ferric” value is 422 nm, the “λmax (nm) ferrous” value turned out to be 443 nm and the ΔAmax was determined as 113%. At CYP3A4 [5], the A421/417 is reported as 1.07. Inhibition on CYP3A4 [4] was half-maximal at 730 ± 60 nM (IC50). At CYP3A4 [6], the “portion of the protein reduced” value amounted to 65% and the “k ET” value was 0.017 s⁻¹.

In the case of `CC(C)(C)OC(=O)NC(CSCC(Nc1ccccc1)C(=O)NCCCc1cccnc1)Cc1ccccc1` (centres unmarked) [Compound 8], the thermal shift (ΔTm) at 15 min, 20 μM at CYP3A4 [1] came out at 5 °C. Besides, the “% decay” value on CYP3A4 [2] is on record as 22%. Also, on CYP3A4 [3], the k fast was determined as 16.2 s⁻¹ and the “percentage of the fast phase” value came out at 30%. On CYP3A4 [5], the Kd turned out to be 28 ± 4 nM, the “λmax (nm) Ferric” value amounted to 422 nm, the “λmax (nm) ferrous” value amounted to 444 nm and the ΔAmax is reported as 114%. Besides, on CYP3A4 [5], the A421/417 worked out at 1.10. The same compound yielded an IC50 on CYP3A4 [4] of 330 ± 30 nM. Also, at CYP3A4 [6], the “portion of the protein reduced” value is 58% and the “k ET” value was 0.018 s⁻¹.

Broadly, the ΔTm is the change in melting temperature against a reference sample. One may read the IC50 as the concentration that gives 50% inhibition. High values mean weaker potency in that assay, low ones greater potency in that assay.

(Values after paper PMC7830545, “Rational Design of CYP3A4 Inhibitors: A One-Atom Linker Elongation in Ritonavir-Like Compounds Leads to a Marked Improvement in the Binding Strength” (International Journal of Molecular Sciences, 2021).)
